Laboratory results published in BindingDB's records for doi:10.3109/14756366.2011.599029 (Dumlupinar University, 2012).

Tests used:
[1] = target: Carbonic anhydrase 1 (Homo sapiens, UniProt P00915); experiment: hCA Activity Assay
[2] = target: Carbonic anhydrase 2 (Homo sapiens, UniProt P00918); experiment: hCA Activity Assay

Carbonic anhydrase 1, sequence (P00915 whole entry): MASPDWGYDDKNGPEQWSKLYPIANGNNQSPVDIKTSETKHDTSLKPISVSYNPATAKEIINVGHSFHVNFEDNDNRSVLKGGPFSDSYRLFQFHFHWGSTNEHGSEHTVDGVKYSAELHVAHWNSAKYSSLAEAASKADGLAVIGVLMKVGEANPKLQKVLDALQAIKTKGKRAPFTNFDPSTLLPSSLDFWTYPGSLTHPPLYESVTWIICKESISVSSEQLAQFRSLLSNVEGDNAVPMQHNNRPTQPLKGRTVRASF

Row | Structure (SMILES) | Ki [1] [nM] | Ki [2] [nM]
1 | CC1(C)CC(=O)C2=C(C1)N(c1ccc(S(N)(=O)=O)cc1)C1=C(C(=O)CC(C)(C)C1)C2c1ccccn1 [4-(3,3,6,6-tetramethyl-1,8-dioxo-9-(pyridin-2-yl)-1,2,3,4,5,6,7,8-octahydroacridine-10(9H)-yl)benzenesulfonamide (6)] | 55 | 130
2 | CC1(C)CCC2=C(C1=O)C(c1ccc(Cl)cc1Cl)C1=C(CCC(C)(C)C1=O)N2c1ccc(S(N)(=O)=O)cc1 [4-(9-(2,4-Dichlorophenyl)-2,2,7,7-tetramethyl 1,8-dioxo 1,2,3,4,5,6,7,8-octahydroacridine 10(9H)-yl)benzenesulfonamide (12)] | 220 | 35
3 | COc1ccc(C2C3=C(CCCC3=O)N(c3ccc(S(N)(=O)=O)cc3)C3=C2C(=O)CCC3)c(OC)c1 [4-(9-(2,4-dimethoxyphenyl)-1,8-dioxo-1,2,3,4,5,6,7,8-octahydroacridine-10(9H)-yl) benzenesulfonamide (7)] | 15 | 1.5
4 | COc1ccc(C2C3=C(CCC(C)(C)C3=O)N(c3ccc(S(N)(=O)=O)cc3)C3=C2C(=O)C(C)(C)CC3)cc1OC [4-(9-(3,4-Dimethoxyphenyl)-2,2,7,7-tetramethyl 1,8-dioxo 1,2,3,4,5,6,7,8-octahydroacridine 10(9H)-yl)benzenesulfonamide (11)] | 205 | 120
5 | CC1(C)CCC2=C(C1=O)C(c1ccc(C#N)cc1)C1=C(CCC(C)(C)C1=O)N2c1ccc(S(N)(=O)=O)cc1 [4-(9-(4-Cyanophenyl)-2,2,7,7-tetramethyl 1,8-dioxo 1,2,3,4,5,6,7,8-octahydroacridine 10(9H)-yl)benzenesulfonamide (9)] | 135 | 95
6 | CC1(C)CC(=O)C2=C(C1)N(c1ccc(S(N)(=O)=O)cc1)C1=C(C(=O)CC(C)(C)C1)C2c1ccc(C#N)cc1 [4-(9-(4-Cyanophenyl)-3,3,6,6-tetramethyl-1,8-dioxo-1,2,3,4,5,6,7,8-octahydroacridine-10(9H)-yl)benzenesulfonamide (4)] | 520 | 250
7 | CC1(C)CCC2=C(C1=O)C(c1ccc(O)cc1)C1=C(CCC(C)(C)C1=O)N2c1ccc(S(N)(=O)=O)cc1 [4-(9-(4-Hydroxyphenyl)-2,2,7,7-tetramethyl 1,8-dioxo 1,2,3,4,5,6,7,8-octahydroacridine 10(9H)-yl)benzenesulfonamide (10)] | 45 | 125
8 | COc1ccc(C2C3=C(CC(C)(C)CC3=O)N(c3ccc(S(N)(=O)=O)cc3)C3=C2C(=O)CC(C)(C)C3)cc1 [4-(9-(4-Methoxyphenyl)-3,3,6,6-tetramethyl-1,8-dioxo-1,2,3,4,5,6,7,8-octahydroacridine-10(9H)-yl)benzenesulfonamide (5)] | 75 | 150
9 | COc1ccc(C2C3=C(CCCC3=O)N(c3ccc(S(N)(=O)=O)cc3)C3=C2C(=O)CCC3)cc1 [4-(9-(4-methoxyphenyl)-1,8-dioxo-1,2,3,4,5,6,7,8-octahydroacridine-10(9H)-yl)benzene sulfonamide (8)] | 8.5 | 7
